The numbers were not newly measured in patent publication US10786601B2, “Composition comprising hyaluronic acid and mepivacaine” (Teoxane, priority 2013, dated 2020), which cites them from elsewhere.

In the case of `Cc1cccc(C)c1NC(=O)C1CCCCN1C` (racemic) [mepivacaine], the pKa is 7,6.
